Measurements as given in paper PMC12421817, “c-di-GMP regulates bacterial NAD biosynthesis via targeting the transcriptional repressor NadR” (mBio, 2025).

Assays:
[1] = target: T1, YcgR (Salmonella enterica, UniProt Q8ZP19); test: UV-crosslinking with biotinylated c-di-GMP (YcgR as positive-control protein); assay type: binding
T1 construct: His6-YcgR

[2] = target: T2, NadR (Salmonella enterica, UniProt P24518); test: ITC; also UV-crosslinking with unlabeled competitor, EMSA, enzyme activity stimulation; assay type: binding
T2 construct: N-terminal His6-tagged NadR
T2 sequence (P24518 1-410): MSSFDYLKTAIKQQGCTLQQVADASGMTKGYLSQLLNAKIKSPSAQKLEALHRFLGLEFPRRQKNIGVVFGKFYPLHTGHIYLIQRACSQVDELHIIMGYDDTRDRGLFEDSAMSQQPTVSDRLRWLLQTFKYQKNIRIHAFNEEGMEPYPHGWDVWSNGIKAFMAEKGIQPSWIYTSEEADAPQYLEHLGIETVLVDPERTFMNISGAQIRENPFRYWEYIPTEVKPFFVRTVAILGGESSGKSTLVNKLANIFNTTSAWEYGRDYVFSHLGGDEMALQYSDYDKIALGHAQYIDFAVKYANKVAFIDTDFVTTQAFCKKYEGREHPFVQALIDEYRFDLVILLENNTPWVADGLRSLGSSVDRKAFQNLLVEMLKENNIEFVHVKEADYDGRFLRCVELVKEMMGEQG

[3] = target: T3, NadR (Salmonella enterica serovar Typhimurium) (UniProt P24518); test: EMSA; settings: EMSA: 50 ng DNA, 20 mM Tris pH 7.5, 100 mM NaCl, 10% glycerol, 4 mM MgCl2, 1% NP-40, 1 mM DTT, 25 uL, 20 min room temperature; 6% native PAGE, 0.5x TBE, SYBR …
T3 sequence: T2 sequence (P24518 1-410)

T1 sequence (Q8ZP19 whole entry): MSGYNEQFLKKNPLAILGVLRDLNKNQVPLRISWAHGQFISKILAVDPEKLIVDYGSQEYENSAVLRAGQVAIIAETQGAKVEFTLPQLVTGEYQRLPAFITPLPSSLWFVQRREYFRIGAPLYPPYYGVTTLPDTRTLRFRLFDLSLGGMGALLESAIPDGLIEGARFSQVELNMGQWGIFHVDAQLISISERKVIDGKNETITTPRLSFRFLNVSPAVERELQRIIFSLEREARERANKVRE

Compound	UV-crosslinking with biotinylated c-di-GMP (YcgR as positive-control protein) [1]	Kd [2]	binding [3]
Nc1nc2c(ncn2[C@@H]2O[C@@H]3COP(=O)(O)O[C@H]4[C@@H](O)[C@H](n5cnc6c(=O)[nH]c(N)nc65)O[C@@H]4COP(=O)(O)O[C@H]3[C@H]2O)c(=O)[nH]1 [c-di-GMP]	YcgR could obviously bind biotinylated c-di-GMP, while InvF, which was used as a negative control, showed no biotin-binding signal	160 ± 20 nM	–
GCTCATCGTGGCTTCTCGTTTTACTGACTTAACGAAACAACCGAATGAAAGCGTAATAAACGCCACAATCGGTTAATTTGTTTTATATGCTAAACAAGATAGCTGATTCAATAAGGAAAGTCACAATAATTACGTAGCCCCGTATCTGATGGCGGCGTAACGTCTTATCTGGCCTACGTGAGCGGTGCCGTCTGTAGGCCTGAT (double strand) [nadA-pnuC promoter]	–	–	binds
GGTTCTTGTTTAATTTACTAAACATGGTTGCGGCAGATTAGCACTATATGGCGCTAAAAAGCACGTTATGATTTCGCTGGTGTTGTGCTTATTAAACATAAAATAAAAATACGGCGAGAGATAAACGGCAAAAAATATTTTATAGGGCAGGGTGTTAGCGTCGGATTTTGTAGTGAAATAAAGATGCTGTTAGGTTACTC (double strand) [nadB promoter]	–	–	binds
